Source: patent US11673894B2, “Imidazopyrimidines and triazolopyrimidines as A2A / A2B inhibitors” (Incyte Corporation, priority 2018, dated 2023)
pEC50, pKi: −log10 of the molar value.

What was measured:
Adenosine A2A receptor = Adenosine A2A receptor (Homo sapiens (Human), UniProt P29274); assay: A2A Tag-lite HTRF Assay; conditions: Tag-lite Adenosine A2A labeled cells; A2A Receptor Red antagonist fluorescent ligand 12.5 nM; one-site competitive binding model; read-out: A2A_Ki
Source text: The final concentration of DMSO was 1%.

[1] = biological target: human adenosine A2B receptor (Homo sapiens (Human), UniProt P29275); assay: Adenosine A2B Receptor Cyclic AMP GS Assay; assay type: cell-based; conditions: HEK-293 cells expressing human A2B receptor; agonist NECA at 12 nM; cAMP accumulation (FRET); read-out: A2B_cAMP_EC50
Sequence of human adenosine A2B receptor (P29275 whole entry): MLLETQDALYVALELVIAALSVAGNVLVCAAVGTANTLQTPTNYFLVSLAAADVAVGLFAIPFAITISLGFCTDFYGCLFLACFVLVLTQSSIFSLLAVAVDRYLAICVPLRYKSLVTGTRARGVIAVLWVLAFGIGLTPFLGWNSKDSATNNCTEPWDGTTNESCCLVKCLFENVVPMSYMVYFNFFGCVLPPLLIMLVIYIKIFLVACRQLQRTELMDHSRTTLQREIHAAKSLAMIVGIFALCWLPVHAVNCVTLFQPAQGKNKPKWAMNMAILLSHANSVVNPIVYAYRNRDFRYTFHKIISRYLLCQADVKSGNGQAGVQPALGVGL
How it was run: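 HEK-293 cells stably expressing human A2B receptor were pretreated 30 min at room temperature with compound, then stimulated with 12 nM NECA for 60 min. cAMP accumulation was measured by HTRF (665/620 ratio). Values were fitted from percent of control versus log concentration.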

Sequence of Adenosine A2A receptor (P29274 whole entry): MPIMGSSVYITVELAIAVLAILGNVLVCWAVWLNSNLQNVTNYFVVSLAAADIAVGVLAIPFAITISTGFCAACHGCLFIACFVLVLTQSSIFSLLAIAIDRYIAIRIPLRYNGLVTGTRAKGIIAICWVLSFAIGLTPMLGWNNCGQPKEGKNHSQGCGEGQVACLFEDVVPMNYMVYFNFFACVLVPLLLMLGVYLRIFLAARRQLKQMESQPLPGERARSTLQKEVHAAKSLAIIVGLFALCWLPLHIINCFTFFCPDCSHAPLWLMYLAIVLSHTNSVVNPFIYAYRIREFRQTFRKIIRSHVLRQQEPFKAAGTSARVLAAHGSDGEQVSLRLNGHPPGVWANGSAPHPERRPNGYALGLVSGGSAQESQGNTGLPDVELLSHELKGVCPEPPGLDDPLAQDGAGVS

Row | pKi (Adenosine A2A receptor) | pEC50 [1] | Compound
1 | > 8.00 | > 8.00 | Cc1cccnc1Cc1nc2c(-c3ocnc3C)c(-c3cccc(C#N)c3)nc(N)n2n1 [Example 84, 3-(5-Amino-8-(4-methyloxazol-5-yl)-2-((3-methylpyridin-2-yl)methyl)-[1,2,4]triazolo[1,5-c]pyrimidin-7-yl)benzonitrile]
2 | > 8.00 | 7.00 to 8.00 | Cc1cc(-c2c(-c3ccccc3)nc(N)n3cc(C(N)=O)nc23)ccn1 [Example 14, 5-Amino-8-(2-methylpyridin-4-yl)-7-phenylimidazo[1,2-c]pyrimidine-2-carboxamide]
3 | > 8.00 | 7.00 to 8.00 | CCn1nccc1-c1c(-c2cccc(C#N)c2)nc(N)n2nc(Cc3nn(C)c4ccccc34)nc12 [Example 56, 3-(5-Amino-8-(1-ethyl-1H-pyrazol-5-yl)-2-((1-methyl-1H-indazol-3-yl)methyl)-[1,2,4]triazolo[1,5-c]pyrimidin-7-yl)benzonitrile]
4 | > 8.00 | > 8.00 | CN(Cc1cccc(F)c1Cc1nc2c(-c3ccncn3)c(-c3cccc(C#N)c3)nc(N)n2n1)S(C)(=O)=O [Example 74, N-(2-((5-Amino-7-(3-cyanophenyl)-8-(pyrimidin-4-yl)-[1,2,4]triazolo[1,5-c]pyrimidin-2-yl)methyl)-3-fluorobenzyl)-N-methylmethanesulfonamide]
5 | > 8.00 | 7.00 to 8.00 | CCn1nccc1-c1c(-c2cccc(C#N)c2)nc(N)n2nc(CC3CCCCC3)nc12 [Example 48, 3-(5-Amino-2-(cyclohexylmethyl)-8-(1-ethyl-1H-pyrazol-5-yl)-[1,2,4]triazolo[1,5-c]pyrimidin-7-yl)benzonitrile]
6 | > 8.00 | 6.00 to 7.00 | CCNC(=O)c1nc2c(-c3cc(C)nc(C)c3)c(-c3ccccc3)nc(N)n2c1Br [Example 20, 5-Amino-3-bromo-8-(2,6-dimethylpyridin-4-yl)-N-ethyl-7-phenylimidazo[1,2-c]pyrimidine-2-carboxamide]
7 | > 8.00 | 7.00 to 8.00 | CCn1nncc1-c1c(-c2cccc(C#N)c2)nc(N)n2nc(Cc3ccccn3)nc12 [Example 83, 3-(5-Amino-8-(1-ethyl-1H-1,2,3-triazol-5-yl)-2-(pyridin-2-ylmethyl)-[1,2,4]triazolo[1,5-c]pyrimidin-7-yl)benzonitrile]
8 | > 8.00 | > 8.00 | N#Cc1cccc(-c2nc(N)n3nc(C(O)c4ccccc4)nc3c2-c2ncncc2F)c1 (stereo not drawn) [Example 45, 3-(5-Amino-8-(5-fluoropyrimidin-4-yl)-2-(hydroxy(phenyl)methyl)-[1,2,4]triazolo[1,5-c]pyrimidin-7-yl)benzonitrile]
9 | > 8.00 | 6.00 to 7.00 | Cc1cc(-c2c(-c3cccc(C#N)c3)nc(N)n3ccnc23)cc(C)n1 [Example 1, 3-(5-Amino-8-(2,6-dimethylpyridin-4-yl)imidazo[1,2-c]pyrimidin-7-yl)benzonitrile]
10 | > 8.00 | > 8.00 | Cc1ncoc1-c1c(-c2cccc(C#N)c2F)nc(N)n2nc(Cc3ccccn3)nc12 [Example 90, 3-(5-Amino-8-(4-methyloxazol-5-yl)-2-(pyridin-2-ylmethyl)-[1,2,4]triazolo[1,5-c]pyrimidin-7-yl)-2-fluorobenzonitrile]
11 | > 8.00 | > 8.00 | N#Cc1cccc(-c2nc(N)n3nc(C(O)c4ccccc4F)nc3c2-c2ccncn2)c1 (stereo not drawn) [Example 50, 3-(5-Amino-2-((2-fluorophenyl)(hydroxy)methyl)-8-(pyrimidin-4-yl)-[1,2,4]triazolo[1,5-c]pyrimidin-7-yl)benzonitrile]
12 | > 8.00 | 7.00 to 8.00 | N#Cc1cccc(-c2nc(N)n3nc(Cc4c(F)cccc4CN4C[C@@H](O)[C@H](F)C4)nc3c2-c2ccncn2)c1 [Example 72, 3-(5-Amino-2-(2-fluoro-6-(((3R,4R)-3-fluoro-4-hydroxypyrrolidin-1-yl)methyl)benzyl)-8-(pyrimidin-4-yl)-[1,2,4]triazolo[1,5-c]pyrimidin-7-yl)benzonitrile]
